According to US20210255168A1, “A METHOD OF PRECISION CANCER THERAPY” (KING FAISAL SPECIALIST HOSPITAL & RESEARCH CENTRE, priority 2018, published 2021):

Legend:
[1] = test system: MDA-MB-231, MCF7, and SKBR3 cell lines; test: mRNA expression in breast cancer cell lines; format: cell-based; settings: MCF7, MDA-MB-231 and SKBR3; most of the cancer cell lines
Method: Cells were cultured in six-well plates and either treated with DMSO or drugs for 24 h. Total RNA was then extracted using Trizol reagent (TRI Reagent, Sigma-Aldrich, St Louis, Mo.). The cells were lysed directly on the culture dish by adding 1 ml of the TRI Reagent per 10 cm^2 surface area. Reverse transcription for preparation of cDNA was performed using 3 μg of total RNA, 150 ng random primers, 0.1 M dithiothreitol (DTT), 10 mM deoxynucleotide triphosphate (dNTP) and 200 U of SuperScript II (Invitrogen, Foster City, Calif.). The quantitative RT-QPCR was performed in multiplex in the Chroma 4 DNA Engine cycler (BioRad, Hercules, Calif., USA) using FAM-labelled TaqMan probes (Applied Biosystems, Foster City, Calif., USA) for TTP (ZFP36), HuR (ELAVL1), uPA (PLAU)-CXCR4, MMP-1, MMP-13, IL-8, PLK-1 while a VIC-labelled glyceraldehyde-3-phosphate dehydrogenase (GAPDH) probe was used as the endogenous control. Samples were amplified in triplicate and quantification of relative expression was performed using the estimation of quantitation cycle (Cq) method.
PLK1 kinase, as an example of kinases involved in cancer, is over-expressed in breast cancer cell lines, including MCF7, MDA-MB-231 and SKBR3 when compared to the normal-like MCF10A (FIG. 5A). Many kinases are either over-expressed or constitutively active or hyperactive in cancer states when compared to normal cells. As example of inhibitors that are found in the precision cancer therapy screen, Volasertib and Regorafenib (VEGFR kinase inhibitor) led to reduction in the level of ARE-containing mRNA, uPA in most of the cancer cell lines. (FIG. 5B).
The present inventors further disclose that the effect of PLK-1 inhibition is consistent among different types of breast cancer including triple-negative, […], and ER-PR negative breast cancers, as shown through the actions induced by PLK-1 inhibitor volasertib on MDA-MB-231, MCF7, and SKBR3 cell lines, namely increasing the expression of TTP, decreasing the HuR level, and downregulating the TTP target uPA. […] Accordingly, the present inventor discloses that any protein kinase inhibitor which post-transcriptionally regulates expression of cancer-related genes is suitable for precision cancer therapy. Further disclosed is a method of treatment of cancer comprising administering said protein kinase inhibitor, to a patient in need thereof.

[2] = test system: TNF-α-ARE luciferase reporter in MDA-MB-231 cells; test: Post-transcriptional ARE luciferase reporter assay (kinase inhibitor library screen); format: cell-based; settings: 0.5, 2 and 5 μM, ARE and non-ARE reporters
[3] = test system: TNF-α-ARE luciferase reporter in MDA-MB-231 cells; test: as above; format: cell-based; settings: for reduction of ARE-reporter activity (in words): PK inhibitor library
Text: Reporters were designed to be driven by the ribosomal protein subunit 30 (RPS30) promoter. The promoter was amplified using PCR with primers specific to the flanking region of the RPS30 promoter sequence. The gene structure of RPS30 was obtained from the Ribosomal Protein Database (http://ribosome.med.miyazaki-u.ac.jp). The forward and reverse primers included the restriction sites, EcoR V and SalI sites. Amplified DNA fragments were then resolved in 1.2%-1.5% agarose gel and the amplicon bands were excised, purified and cloned into the promoterless plasmid. TNF-α 3′-UTR and TNF-α ARE were used to study the role of AU-rich elements in the action of PKs inhibitors. The AU-rich sequence that comprised 250 bases from TNF-α 3′UTR (1200-1450 bp, NM_00059) was amplified by PCR using the forward primer 5′-[…]-3′ (SEQ ID NO:1) and the reverse primer 5′-[…]-3′ (SEQ ID NO:2). The TNF-α-ARE sequence was made by annealing two synthetic complementary oligonucleotides of 70 bases that correspond to TNF-α ARE. The control reporter was constructed to have the basic structure of post-transcriptional reporter except 3′UTR which lack the AU-rich element sequence like this of bovine growth hormone. Any ARE reiterations or variations can be used, with minimal sequence is AUUUA, preferably, WW(AUUUA)WW, where W=A or U. They can be also repeated as an overall, e.g., AUUUAUUA, anywhere from 0 to 10 repeats as example.
Selleckchem Kinase Inhibitor Library that includes a selection of 378 pharmacologically active inhibitors of a number of protein kinases was purchased from Selleckchem. (Houston, Tex., USA). This library is a collection of 378 kinase inhibitors some of which have been approved by the FDA. Each compound is provided as a pre-dissolved 10 mM dimethyl sulfoxide (DMSO) solution as a 96 well format tube (100 μL). The compounds were diluted by OPTI-MEM (Thermo Fisher Scientific, Waltham, Mass., USA) to a final concentration of 5 μM.
Post-transcriptional and control reporter constructs were transfected to MDA-MB-231 cells separately that were seeded in 96-well microplates at a density of 4×10^4 cells/well and incubated overnight. Using lipofectamine 2000 protocol (Invitrogen, Carlsbad, Calif., USA), the cells were transfected with 10 ng of either RPS30-luciferase-control 3′UTR or RPS30-luciferase-ARE 3′UTR reporter plasmids. After 24 h, the cells were treated with each member of protein kinase inhibitors kit for 24 h. Then, luciferase reaction was performed as prescribed by manufacture's protocol (Nano-Glo Luciferase, Promega, Madison, Wis., USA)/well. After 15 minutes, the reporters' activities were measured through the measurement of the chemiluminescence (FIG. 8) after treatment using a Zenith 3100 (Anthos Labtec, Eugendorf, Austria).
Data are presented as means±standard error of the mean (SEM). Two-sample Student's t-test was used to determine the differences between two data sets. One-way analysis of variance (ANOVA) was used to compare three or more data columns. Two-way analysis of variance was used to analyze two groups of data, each having two data columns. Analysis was performed using GraphPad Prism version 6.00 for Windows, (GraphPad Software, La Jolla Calif., USA). For high throughput screening (HTS) hit selection (protein kinase inhibitors), strictly standardized mean difference (SSMD) test was used. This statistical test measures the size of effect of each member in a group relative to the other members. It is the mean of each member divided by the standard deviation of the difference between two random values from different groups. Based on the value of SSMD, the effect of each member of the library was classified as strong (β≥5), moderate (1≤β<5), and weak (β<1). In this study, only drug with SSMD score more than or equal to 5 or less than or equal to −5, i.e. strong β, where selected in the primary screening. […]

[4] = target: PLK-2 (Homo sapiens, UniProt Q9NYY3); settings: cited from earlier work
[5] = target: PLK-3 (Homo sapiens, UniProt Q9H4B4); settings: cited from earlier work
Chain of PLK-3 (Q9H4B4 whole entry, species assumed): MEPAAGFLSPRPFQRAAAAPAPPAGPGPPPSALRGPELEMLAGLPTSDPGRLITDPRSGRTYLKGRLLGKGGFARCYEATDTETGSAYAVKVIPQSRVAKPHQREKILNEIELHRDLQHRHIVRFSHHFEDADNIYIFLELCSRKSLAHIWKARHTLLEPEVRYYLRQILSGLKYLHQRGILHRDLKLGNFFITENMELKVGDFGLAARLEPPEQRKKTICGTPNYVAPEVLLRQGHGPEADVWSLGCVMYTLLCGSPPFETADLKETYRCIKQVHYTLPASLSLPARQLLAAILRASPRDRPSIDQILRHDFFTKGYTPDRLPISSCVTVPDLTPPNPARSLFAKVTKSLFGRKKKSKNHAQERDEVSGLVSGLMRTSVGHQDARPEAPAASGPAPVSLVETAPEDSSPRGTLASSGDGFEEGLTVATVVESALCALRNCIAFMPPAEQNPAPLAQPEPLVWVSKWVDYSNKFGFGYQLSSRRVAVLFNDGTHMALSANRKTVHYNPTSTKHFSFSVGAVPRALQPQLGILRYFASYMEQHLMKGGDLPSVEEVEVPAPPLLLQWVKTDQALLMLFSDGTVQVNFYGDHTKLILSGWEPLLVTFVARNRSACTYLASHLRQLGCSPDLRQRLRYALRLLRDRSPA

Chain of PLK-2 (Q9NYY3 whole entry, species assumed): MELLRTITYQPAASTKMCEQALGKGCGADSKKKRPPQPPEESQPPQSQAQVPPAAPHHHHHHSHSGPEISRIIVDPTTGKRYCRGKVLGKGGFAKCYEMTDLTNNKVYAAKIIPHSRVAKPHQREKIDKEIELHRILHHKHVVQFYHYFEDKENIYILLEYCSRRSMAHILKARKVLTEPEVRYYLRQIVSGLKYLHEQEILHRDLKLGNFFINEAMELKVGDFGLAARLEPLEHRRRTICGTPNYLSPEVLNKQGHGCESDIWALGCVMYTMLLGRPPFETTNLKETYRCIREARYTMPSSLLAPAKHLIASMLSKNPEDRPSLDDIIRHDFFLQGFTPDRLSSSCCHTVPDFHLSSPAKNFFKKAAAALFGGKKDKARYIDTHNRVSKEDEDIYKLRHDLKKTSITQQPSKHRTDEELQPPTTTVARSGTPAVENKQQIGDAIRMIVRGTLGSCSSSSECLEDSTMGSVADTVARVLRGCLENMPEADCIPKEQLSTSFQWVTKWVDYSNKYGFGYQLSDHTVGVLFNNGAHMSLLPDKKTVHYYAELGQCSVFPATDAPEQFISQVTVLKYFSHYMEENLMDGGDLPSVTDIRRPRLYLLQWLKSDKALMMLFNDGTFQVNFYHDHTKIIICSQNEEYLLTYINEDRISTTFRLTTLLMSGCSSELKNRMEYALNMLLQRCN

Compound: CNC(=O)c1cc(Oc2ccc(NC(=O)Nc3ccc(Cl)c(C(F)(F)F)c3)c(F)c2)ccn1 [Regorafenib]
- level of ARE-containing mRNA uPA in cancer cell lines [1]: reduction
- ARE-dependent mRNA regulation confirmed in later stages of screening compared to a non-ARE reporter [2]: confirmed to be involved in ARE-dependent mRNA regulation

Compound: CC[C@@H]1C(=O)N(C)c2cnc(Nc3ccc(C(=O)NC4CCN(C)CC4)cc3OC)nc2N1C1CCCC1 [BI 2536]
- reduction of TNF-ARE luciferase reporter activity ([3]; primary screening, 5 μM): 35%
- reduction in percent reporter activity in the secondary screening compared to the control reporter ([3]; secondary screening, ARE vs non-ARE control reporter): 16%

Compound: COc1ccc(S(=O)(=O)N(C(C)=O)c2ccccc2/C=C/c2cc[n+]([O-])cc2)cc1 [HMN-214]
- reduction of ARE-reporter activity (in words) [3]: did not reduce

Compound: Ro3280
- reduction of ARE-reporter activity (in words) [3]: did not reduce

Compound: Cc1ccc(NC(=O)c2cccc(C(C)(C)C#N)c2)cc1Nc1ccc2ncn(C)c(=O)c2c1 [AZ628]
- ARE-dependent mRNA regulation confirmed in later stages of screening compared to a non-ARE reporter [2]: confirmed to be involved in ARE-dependent mRNA regulation

Compound: COc1cc(OC)c(/C=C/S(=O)(=O)Cc2ccc(OC)c(NCC(=O)O)c2)c(OC)c1 [rigosertib]
- reduction of ARE-reporter activity (in words) [3]: did not reduce
- selectivity (PLK-1) against PLK-2 [4]: more than 30 fold
- activity on PLK-3 [5]: no activity

Compound: CN1CCN(c2ccc(OC(F)(F)F)c(Nc3ncc4c(n3)-c3c(c(C(N)=O)nn3CCO)CC4)c2)CC1 [NMS-P937]
- reduction of ARE-reporter activity (in words) [3]: did not reduce

Compound: C[C@@H](Oc1cc(-n2cnc3ccc(CN4CCN(C)CC4)cc32)sc1C(N)=O)c1ccccc1C(F)(F)F [GSK461364]
- reduction of ARE-reporter activity (in words) [3]: did not reduce
